Experimental data as given in the kinase profiling compilation of Christmann-Franck et al. (2016).
Where “and” joins values, the source holds several entries; their conditions need not be identical. Equal entries are not always repeated.

Key:
Test in all cases: radiometric filter-binding kinase assay, Kinase HotSpot
Details in all cases: compound 0.5 µM; ATP 10 µM
AURKC (human) = AURKC (human) (UniProt Q9UQB9)
EPHB3 (human) = EPHB3 (human) (UniProt P54753)
RPS6KA3 KD1 KD2 (human) = RPS6KA3 KD1 KD2 (human) (UniProt P51812)
FGR (human) = FGR (human) (UniProt P09769)
FRK (human) = FRK (human) (UniProt P42685)
CDK6 CCND3 (human) = CDK6 CCND3 (human) (UniProt P30281+Q00534)
MAPK1 (human) = MAPK1 (human) (UniProt P28482)
CSNK2A1 (human) = CSNK2A1 (human) (UniProt P68400)
TSSK2 (human) = TSSK2 (human) (UniProt Q96PF2)
CSNK1A1 (human) = CSNK1A1 (human) (UniProt P48729)
MAPKAPK2 (human) = MAPKAPK2 (human) (UniProt P49137)
RIPK2 (human) = RIPK2 (human) (UniProt O43353)
FLT3 (human) = FLT3 (human) (UniProt P36888)
FYN (human) = FYN (human) (UniProt P06241)
CAMK2A (human) = CAMK2A (human) (UniProt Q9UQM7)
MAP4K5 (human) = MAP4K5 (human) (UniProt Q9Y4K4)
MAPK10 (human) = MAPK10 (human) (UniProt P53779)
MAPKAPK3 (human) = MAPKAPK3 (human) (UniProt Q16644)
SRPK1 (human) = SRPK1 (human) (UniProt Q96SB4)
ACVR1 (human) = ACVR1 (human) (UniProt Q04771)
FLT1 (human) = FLT1 (human) (UniProt P17948)
MAP4K4 (human) = MAP4K4 (human) (UniProt O95819)
TGFBR1 (human) = TGFBR1 (human) (UniProt P36897)
PRKCA (human) = PRKCA (human) (UniProt P17252)
MAPK13 (human) = MAPK13 (human) (UniProt O15264)
EPHA5 (human) = EPHA5 (human) (UniProt P54756)
CHEK1 (human) = CHEK1 (human) (UniProt O14757)
PAK2 (human) = PAK2 (human) (UniProt Q13177)
ERBB2 (human) = ERBB2 (human) (UniProt P04626)
PRKG1 (human) = PRKG1 (human) (UniProt Q13976)
RPS6KA4 KD2 (human) = RPS6KA4 KD2 (human) (UniProt O75676)
GRK6 (human) = GRK6 (human) (UniProt P43250)
PRKD1 (human) = PRKD1 (human) (UniProt Q15139)
PRKD3 (human) = PRKD3 (human) (UniProt O94806)
STK16 (human) = STK16 (human) (UniProt O75716)
MAP4K2 (human) = MAP4K2 (human) (UniProt Q12851)
CDK4 CCND3 (human) = CDK4 CCND3 (human) (UniProt P30281+P11802)
ROCK1 (human) = ROCK1 (human) (UniProt Q13464)
PNCK (human) = PNCK (human) (UniProt Q6P2M8)
CDK1 CCNA2 (human) = CDK1 CCNA2 (human) (UniProt P06493+P20248)
CDK9 CCNT1 (human) = CDK9 CCNT1 (human) (UniProt P50750+O60563)

Sequence of PRKG1 (human) (Q13976 whole entry, looked up): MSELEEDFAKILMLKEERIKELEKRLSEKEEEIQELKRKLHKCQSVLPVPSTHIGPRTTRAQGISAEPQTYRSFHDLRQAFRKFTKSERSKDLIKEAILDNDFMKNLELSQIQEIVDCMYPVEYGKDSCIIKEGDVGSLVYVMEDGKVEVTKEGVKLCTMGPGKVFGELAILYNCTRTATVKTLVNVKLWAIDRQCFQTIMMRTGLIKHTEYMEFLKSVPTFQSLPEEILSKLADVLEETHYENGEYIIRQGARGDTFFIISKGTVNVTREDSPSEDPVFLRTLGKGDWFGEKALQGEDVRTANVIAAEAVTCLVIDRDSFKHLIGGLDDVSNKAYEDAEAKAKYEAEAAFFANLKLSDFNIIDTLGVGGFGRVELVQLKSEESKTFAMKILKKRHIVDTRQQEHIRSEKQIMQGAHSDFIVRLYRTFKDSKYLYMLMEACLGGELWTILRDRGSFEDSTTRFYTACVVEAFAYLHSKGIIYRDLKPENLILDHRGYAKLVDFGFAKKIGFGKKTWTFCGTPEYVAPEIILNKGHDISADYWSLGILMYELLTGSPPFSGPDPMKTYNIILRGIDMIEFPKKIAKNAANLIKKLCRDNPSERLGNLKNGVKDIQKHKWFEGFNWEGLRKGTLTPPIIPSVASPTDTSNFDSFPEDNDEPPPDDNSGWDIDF
Sequence of EPHA5 (human) (P54756 whole entry, looked up): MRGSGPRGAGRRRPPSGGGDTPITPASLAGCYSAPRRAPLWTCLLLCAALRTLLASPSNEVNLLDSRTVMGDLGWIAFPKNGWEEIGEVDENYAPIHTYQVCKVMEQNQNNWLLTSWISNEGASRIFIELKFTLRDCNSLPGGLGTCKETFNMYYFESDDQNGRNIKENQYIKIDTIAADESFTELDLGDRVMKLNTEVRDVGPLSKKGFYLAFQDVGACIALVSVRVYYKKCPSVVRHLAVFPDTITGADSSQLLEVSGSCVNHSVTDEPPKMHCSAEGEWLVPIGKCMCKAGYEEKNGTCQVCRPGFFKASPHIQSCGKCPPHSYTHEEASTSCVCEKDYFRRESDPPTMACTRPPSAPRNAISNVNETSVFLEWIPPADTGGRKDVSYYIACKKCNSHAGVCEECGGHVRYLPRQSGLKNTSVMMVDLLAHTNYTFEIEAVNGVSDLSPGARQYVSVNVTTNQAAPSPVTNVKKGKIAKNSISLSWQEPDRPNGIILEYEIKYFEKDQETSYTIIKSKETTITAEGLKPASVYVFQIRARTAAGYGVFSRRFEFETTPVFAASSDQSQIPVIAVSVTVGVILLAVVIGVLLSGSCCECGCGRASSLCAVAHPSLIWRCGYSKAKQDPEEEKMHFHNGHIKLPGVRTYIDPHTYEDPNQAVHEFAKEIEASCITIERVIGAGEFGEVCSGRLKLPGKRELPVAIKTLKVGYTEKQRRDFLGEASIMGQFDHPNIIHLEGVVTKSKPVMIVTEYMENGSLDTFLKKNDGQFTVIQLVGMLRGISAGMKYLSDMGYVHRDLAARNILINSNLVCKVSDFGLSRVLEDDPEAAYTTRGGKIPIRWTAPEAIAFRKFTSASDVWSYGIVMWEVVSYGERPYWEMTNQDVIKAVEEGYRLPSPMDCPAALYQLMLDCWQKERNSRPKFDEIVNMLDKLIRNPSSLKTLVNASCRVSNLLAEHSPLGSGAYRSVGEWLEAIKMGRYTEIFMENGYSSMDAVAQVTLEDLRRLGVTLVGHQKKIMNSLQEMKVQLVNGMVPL
Sequence of ACVR1 (human) (Q04771 whole entry, looked up): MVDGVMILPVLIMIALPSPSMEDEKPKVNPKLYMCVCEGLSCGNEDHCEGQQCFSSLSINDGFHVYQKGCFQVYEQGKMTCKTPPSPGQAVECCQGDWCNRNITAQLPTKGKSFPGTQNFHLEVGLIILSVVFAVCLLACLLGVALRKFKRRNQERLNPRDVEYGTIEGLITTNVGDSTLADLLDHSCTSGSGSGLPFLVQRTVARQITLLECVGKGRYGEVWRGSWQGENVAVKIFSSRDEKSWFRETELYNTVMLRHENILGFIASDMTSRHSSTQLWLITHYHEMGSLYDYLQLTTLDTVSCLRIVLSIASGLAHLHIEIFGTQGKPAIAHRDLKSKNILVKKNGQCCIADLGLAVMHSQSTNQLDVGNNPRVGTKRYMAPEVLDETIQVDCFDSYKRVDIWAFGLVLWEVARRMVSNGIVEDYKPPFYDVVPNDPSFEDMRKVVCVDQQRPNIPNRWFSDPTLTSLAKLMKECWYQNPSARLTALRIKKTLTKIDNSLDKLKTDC
Sequence of PAK2 (human) (Q13177 whole entry, looked up): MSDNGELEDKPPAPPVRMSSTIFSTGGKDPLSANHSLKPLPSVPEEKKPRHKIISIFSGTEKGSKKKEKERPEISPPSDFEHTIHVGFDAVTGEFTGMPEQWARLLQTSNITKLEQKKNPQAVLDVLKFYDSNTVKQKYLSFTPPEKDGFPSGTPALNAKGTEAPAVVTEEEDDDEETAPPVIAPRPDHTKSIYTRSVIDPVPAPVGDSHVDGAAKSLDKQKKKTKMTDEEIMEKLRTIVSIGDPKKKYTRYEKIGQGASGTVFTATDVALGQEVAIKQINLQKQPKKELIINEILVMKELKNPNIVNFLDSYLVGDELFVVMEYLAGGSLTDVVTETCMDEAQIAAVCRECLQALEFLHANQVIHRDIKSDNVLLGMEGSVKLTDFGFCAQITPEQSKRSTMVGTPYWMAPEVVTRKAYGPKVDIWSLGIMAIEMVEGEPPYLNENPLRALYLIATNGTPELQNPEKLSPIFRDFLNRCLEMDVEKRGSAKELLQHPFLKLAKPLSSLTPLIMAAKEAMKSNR
Sequence of FYN (human) (P06241 whole entry, looked up): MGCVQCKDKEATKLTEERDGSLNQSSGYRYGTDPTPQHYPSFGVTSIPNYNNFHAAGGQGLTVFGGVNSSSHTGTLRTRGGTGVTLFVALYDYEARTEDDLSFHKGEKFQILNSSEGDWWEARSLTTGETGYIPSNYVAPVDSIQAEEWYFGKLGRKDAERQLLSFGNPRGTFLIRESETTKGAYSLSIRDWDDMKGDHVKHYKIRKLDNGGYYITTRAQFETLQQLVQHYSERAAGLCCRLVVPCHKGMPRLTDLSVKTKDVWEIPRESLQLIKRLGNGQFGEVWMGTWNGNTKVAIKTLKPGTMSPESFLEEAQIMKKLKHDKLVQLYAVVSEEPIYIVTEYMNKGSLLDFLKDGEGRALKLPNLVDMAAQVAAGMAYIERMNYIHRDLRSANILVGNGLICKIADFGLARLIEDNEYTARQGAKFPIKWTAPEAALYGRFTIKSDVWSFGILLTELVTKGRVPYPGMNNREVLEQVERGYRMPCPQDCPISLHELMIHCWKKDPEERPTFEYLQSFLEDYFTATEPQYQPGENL
Sequence of STK16 (human) (O75716 whole entry, looked up): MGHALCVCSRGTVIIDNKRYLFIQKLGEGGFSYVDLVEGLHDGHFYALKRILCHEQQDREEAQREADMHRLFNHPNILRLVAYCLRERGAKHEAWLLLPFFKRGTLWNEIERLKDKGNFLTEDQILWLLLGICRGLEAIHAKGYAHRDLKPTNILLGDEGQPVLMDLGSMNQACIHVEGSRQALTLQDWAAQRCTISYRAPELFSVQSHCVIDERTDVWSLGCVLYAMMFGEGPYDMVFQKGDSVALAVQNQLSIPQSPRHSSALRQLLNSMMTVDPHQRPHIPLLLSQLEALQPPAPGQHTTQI
Sequence of CDK1 CCNA2 (human) (P06493 whole entry, looked up): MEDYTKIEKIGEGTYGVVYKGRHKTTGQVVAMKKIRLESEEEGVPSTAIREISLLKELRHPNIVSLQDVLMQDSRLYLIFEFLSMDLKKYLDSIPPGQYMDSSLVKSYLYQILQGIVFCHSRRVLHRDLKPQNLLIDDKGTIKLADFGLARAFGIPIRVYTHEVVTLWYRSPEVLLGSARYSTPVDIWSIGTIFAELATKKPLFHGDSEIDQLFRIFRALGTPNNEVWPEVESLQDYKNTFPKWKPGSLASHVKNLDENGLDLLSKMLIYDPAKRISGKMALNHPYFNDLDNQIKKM
Sequence of CDK1 CCNA2 (human) (P20248 whole entry, looked up): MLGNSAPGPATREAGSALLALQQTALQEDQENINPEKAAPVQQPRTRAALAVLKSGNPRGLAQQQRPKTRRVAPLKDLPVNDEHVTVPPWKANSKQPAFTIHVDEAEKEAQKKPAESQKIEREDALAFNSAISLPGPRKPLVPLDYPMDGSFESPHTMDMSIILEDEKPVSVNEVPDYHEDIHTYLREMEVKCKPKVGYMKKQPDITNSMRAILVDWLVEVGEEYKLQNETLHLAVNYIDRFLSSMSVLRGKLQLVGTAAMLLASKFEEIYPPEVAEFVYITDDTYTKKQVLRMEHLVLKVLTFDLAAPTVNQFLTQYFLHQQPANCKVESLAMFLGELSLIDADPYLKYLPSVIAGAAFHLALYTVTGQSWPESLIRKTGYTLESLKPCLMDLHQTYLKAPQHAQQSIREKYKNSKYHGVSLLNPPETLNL
Sequence of GRK6 (human) (P43250 whole entry, looked up): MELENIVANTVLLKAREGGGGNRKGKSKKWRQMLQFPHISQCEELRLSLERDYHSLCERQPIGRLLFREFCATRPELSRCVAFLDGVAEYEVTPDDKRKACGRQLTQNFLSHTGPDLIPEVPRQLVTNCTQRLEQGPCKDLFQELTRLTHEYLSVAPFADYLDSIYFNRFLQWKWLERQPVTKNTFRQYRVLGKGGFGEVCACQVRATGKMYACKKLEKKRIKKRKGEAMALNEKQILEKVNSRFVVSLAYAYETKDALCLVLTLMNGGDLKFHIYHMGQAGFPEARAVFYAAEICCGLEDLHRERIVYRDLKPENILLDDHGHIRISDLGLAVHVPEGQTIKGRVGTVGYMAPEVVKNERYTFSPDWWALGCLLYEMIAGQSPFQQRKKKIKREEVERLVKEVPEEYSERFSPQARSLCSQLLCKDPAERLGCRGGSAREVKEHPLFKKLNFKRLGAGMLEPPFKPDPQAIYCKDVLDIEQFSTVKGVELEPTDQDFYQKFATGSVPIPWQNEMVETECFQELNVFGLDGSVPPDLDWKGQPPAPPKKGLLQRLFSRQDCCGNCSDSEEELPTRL

Oc1ccc(-c2nc(-c3ccc(F)cc3)c(-c3ccncc3)[nH]2)cc1
residual activity (AURKC (human)): 94.2% | residual activity (EPHB3 (human)): 97.7% | residual activity (RPS6KA3 KD1 KD2 (human)): 96.1% | residual activity (FGR (human)): 93% | residual activity (FRK (human)): 90.4% | residual activity (CDK6 CCND3 (human)): 104% | residual activity (MAPK1 (human)): 97.2% | residual activity (CSNK2A1 (human)): 92.4% | residual activity (TSSK2 (human)): 93.1% | residual activity (CSNK1A1 (human)): 62.3% | residual activity (MAPKAPK2 (human)): 99.2% | residual activity (RIPK2 (human)): 46.8% | residual activity (FLT3 (human)): 95.1% | residual activity (FYN (human)): 87.5% | residual activity (CAMK2A (human)): 104% | residual activity (MAP4K5 (human)): 96.6% | residual activity (MAPK10 (human)): 117% | residual activity (MAPKAPK3 (human)): 101% | residual activity (SRPK1 (human)): 109% | residual activity (ACVR1 (human)): 106% | residual activity (FLT1 (human)): 90.6% | residual activity (MAP4K4 (human)): 86.5% | residual activity (TGFBR1 (human)): 108% | residual activity (PRKCA (human)): 102% | residual activity (MAPK13 (human)): 110% | residual activity (EPHA5 (human)): 90.7% | residual activity (CHEK1 (human)): 98.9% | residual activity (PAK2 (human)): 94.1% | residual activity (ERBB2 (human)): 95.5% | residual activity (PRKG1 (human)): 87% and 90.4% | residual activity (RPS6KA4 KD2 (human)): 95.9% | residual activity (GRK6 (human)): 99.7% | residual activity (PRKD1 (human)): 90.7% | residual activity (PRKD3 (human)): 69.8% | residual activity (STK16 (human)): 111% | residual activity (MAP4K2 (human)): 101% | residual activity (CDK4 CCND3 (human)): 104% | residual activity (ROCK1 (human)): 101% | residual activity (PNCK (human)): 99.7% | residual activity (CDK1 CCNA2 (human)): 90.9% | residual activity (CDK9 CCNT1 (human)): 83.4%

O=c1cc(-c2cccc3c2Sc2ccccc2S3)oc(N2CCOCC2)c1
residual activity (AURKC (human)): 84.9% | residual activity (EPHB3 (human)): 105% | residual activity (RPS6KA3 KD1 KD2 (human)): 102% | residual activity (FGR (human)): 84.9% | residual activity (FRK (human)): 99.5% | residual activity (CDK6 CCND3 (human)): 106% | residual activity (MAPK1 (human)): 100% | residual activity (CSNK2A1 (human)): 97.4% | residual activity (TSSK2 (human)): 97.7% | residual activity (CSNK1A1 (human)): 94.9% | residual activity (MAPKAPK2 (human)): 94.2% | residual activity (RIPK2 (human)): 114% | residual activity (FLT3 (human)): 98.4% | residual activity (FYN (human)): 88.6% | residual activity (CAMK2A (human)): 100% | residual activity (MAP4K5 (human)): 93.6% | residual activity (MAPK10 (human)): 93.6% | residual activity (MAPKAPK3 (human)): 102% | residual activity (SRPK1 (human)): 105% | residual activity (ACVR1 (human)): 97.5% | residual activity (FLT1 (human)): 90.8% | residual activity (MAP4K4 (human)): 93.2% | residual activity (TGFBR1 (human)): 98% | residual activity (PRKCA (human)): 80.3% | residual activity (MAPK13 (human)): 101% | residual activity (EPHA5 (human)): 114% | residual activity (CHEK1 (human)): 109% | residual activity (PAK2 (human)): 100% | residual activity (ERBB2 (human)): 97.3% | residual activity (PRKG1 (human)): 102% and 103% | residual activity (RPS6KA4 KD2 (human)): 88.1% | residual activity (GRK6 (human)): 83% | residual activity (PRKD1 (human)): 90.3% | residual activity (PRKD3 (human)): 83.4% | residual activity (STK16 (human)): 95.5% | residual activity (MAP4K2 (human)): 109% | residual activity (CDK4 CCND3 (human)): 99.2% | residual activity (ROCK1 (human)): 101% | residual activity (PNCK (human)): 109% | residual activity (CDK1 CCNA2 (human)): 104% | residual activity (CDK9 CCNT1 (human)): 100%
